In patent US12667566B2, “Combination therapy of GPR119 agonists and DPP-4 inhibitors” (MANKIND PHARMA LTD., priority 2019, dated 2026):

Key:
blood glucose = test: Oral glucose tolerance test (OGTT); assay type: in vivo; settings: male Sprague Dawley rats, glucose load 2 g/kg
Protocol: FIG. 1. Oral glucose tolerance test (OGTT) of GPR119 agonist Formula 1A in male Sprague Dawley rats. Formula 1A was administered to the rats and blood glucose was monitored post 30 min of dose administration (0-time point). After glucose administration (2 g/kg/10 ml), glucose levels were estimated at different time points (5, 15, 30, 60 & 120 min) and compared to vehicle group. Data was analysed by One-Way ANOVA followed by Dunnett's Multiple Comparison Test. *P<0.05, **P<0.01 & ***P<0.001 vs vehicle control. Vehicle used was 0.5% Tween 80 and 99.5% NaCMC in water (0.5% w/v).
OGTT study is conducted in male Sprague dawley rats. […] Vehicle (0.5% Tween 80 and 99.5% NaCMC in water (0.5% w/v) was administered to control animals and remaining groups were administered with test compound prepared in vehicle at respective doses orally. Blood samples were collected immediately after test compound administration (which was −30 min time point). Blood glucose was monitored post 30 min of dose administration (which was a zero min time point). All animals received 2 g/kg/10 ml (20%) of Glucose solution orally. After glucose administration, glucose levels were estimated at different time points (5, 15, 30, 60 & 120 min). Estimation of blood glucose level was done by strip method. […] Blood glucose AUC was calculated from the samples collected at respective time points. […]

active GLP-1 = test: Active GLP-1 estimation; assay type: in vivo; settings: male Sprague Dawley rats, oral
Protocol: FIG. 2. Effect of GPR119 agonist Formula 1A on active GLP-1 levels in male Sprague Dawley rats. Formula 1A was administered to the rats and GLP-1 levels were estimated at different time points (0, 5, 15, 30 & 60 min) and compared to vehicle group. Data was analysed by One-Way ANOVA followed by Dunnett's Multiple Comparison Test. *P<0.05, **P<0.01, ***P<0.001 vs vehicle control. Vehicle used was 0.5% Tween 80 and 99.5% NaCMC in water (0.5% w/v).
GLP-1 estimation is conducted in male Sprague dawley rats. Animals of 8-10 weeks old were kept for overnight fasting (only water was provided ad libitum). […] were randomized based on basal glucose values into four different groups. Vehicle (0.5% Tween 80 and 99.5% NaCMC in water (0.5% w/v) was administered to control animals and remaining groups were administered with test compound prepared in vehicle at respective doses orally.
For active GLP-1 estimation, blood was collected by retro orbital puncture under isoflurane anesthesia. Active GLP-1 levels were estimated from the collected plasma at −30, 0, 5, 15, 30 & 60 min time points. Blood collection (Approximately 400-500 μl) was done by retro orbital puncture under isoflurane anesthesia with the help of DPP-4 inhibitor (#DPP4-010, Merck-Millipore) rinsed capillaries and collected into pre-coated Eppendorf (10 μl/ml of blood) with DPP-4 inhibitor.

Compound	glucose reduction compared to vehicle (blood glucose; 10 mg/kg)	increase in active GLP-1 secretion compared to vehicle (active GLP-1; 10 mg/kg/wt)	glucose reduction compared to vehicle (blood glucose; 3 mg/kg)	increase in active GLP-1 secretion compared to vehicle (active GLP-1; 3 mg/kg/wt)
CCc1cnc(N2CCC([C@H](C)Oc3nn4cc(-c5ccc(S(C)(=O)=O)cc5F)nc4s3)CC2)nc1 [Formula IA]	16%	123%	–	–
N[C@@H](CC(=O)N1CCn2c(nnc2C(F)(F)F)C1)Cc1cc(F)c(F)cc1F [sitagliptin, (3R)-3-amino-1-[3-(trifluoromethyl)-5,6,7,8-tetrahydro-5H-[1,2,4]triazolo-[4,3-a]pyrazin-7-yl]-4-(2,4,5-trifluorophenyl) butan-1-one]	–	–	15%	253%
